Values of other authors in patent publication US11801275B2, “Compositions and methods for common colds” (M. ALPHABET 3, LLC, priority 2017, dated 2023).
Read-outs that look alike come from different tables or passages of the source.

Key:
[1] = tested on: common cold
[2] = tested on: upper respiratory tract infections

Structure (SMILES)	pooled risk ratio (RR) of developing a cold whilst taking vitamin C regularly ([1]; five trials, 598 marathon runners, skiers and soldiers on subarctic exercises, 95% CI 0.35 to 0.64)	pooled risk ratio (RR) of developing a cold whilst taking vitamin C regularly ([1]; general community trials, 10,708 participants, 95% CI 0.94 to 1.00)	effect on the duration or severity of colds ([1]; therapeutic trials)	mean level of 25-hydroxy vitamin D ([2]; after oral vitamin D3 200,000 IU then 100,000 IU, increased from 29 (SD, 9) ng/mL, maintained throughout the study)	difference versus placebo in upper respiratory tract infections, days of missed work, duration and severity of symptoms ([2]; irrespective of season)
O=C1O[C@H]([C@@H](O)CO)C(O)=C1O [vitamin C, ascorbic acid]	0.48	0.97	no consistent effect	–	–
C=C1CC[C@H](O)C/C1=C/C=C1\CCC[C@]2(C)[C@@H]([C@H](C)CCCC(C)C)CC[C@@H]12 [vitamin D3]	–	–	–	greater than 48 ng/mL	no statistically significant difference
